Key:
Conditions in all cases: Homo sapiens
[1] = system: SF-539; assay: Tested for the cytotoxicity against the CNS cancer cell line SF-539, growth inhibition by 50% is reported; assay type: functional
[2] = system: IGROV-1; assay: Tested for the cytotoxicity against the Ovarian cancer cell line IGROV1, growth inhibition by 50% is reported; assay type: functional
[3] = system: RPMI-8226; assay: Tested for the cytotoxicity against the Leukemia cell line RPMI8226, growth inhibition by 50% is reported; assay type: functional
[4] = system: SR; assay: Tested for the cytotoxicity against the Leukemia cell line SR, growth inhibition by 50% is reported; assay type: functional
[5] = system: NCI-H23; assay: Tested for the cytotoxicity against the Non-small cell lung cancer cell line NCI-H23, growth inhibition by 50% is reported
[6] = system: HOP-92; assay: Tested for the cytotoxicity against the Non-small cell lung cancer cell line HOP-92, growth inhibition by 50% is reported; assay type: functional
[7] = system: HT-29; assay: Tested for the cytotoxicity against the colon cancer cell line HT29, growth inhibition by 50% is reported; assay type: functional
[8] = system: OVCAR-8; assay: Tested for the cytotoxicity against the Ovarian cancer cell line OVCAR-8, growth inhibition by 50% is reported; assay type: functional
[9] = system: HL-60; assay: Tested for the cytotoxicity against the Leukemia cell line HL60, growth inhibition by 50% is reported; assay type: functional
[10] = system: UACC-62; assay: Tested for the cytotoxicity against the Melanoma cell line UACC-62, growth inhibition by 50% is reported; assay type: functional
[11] = system: Hs-578T; assay: Tested for the cytotoxicity against the Breast cancer cell line HS-578T, growth inhibition by 50% is reported; assay type: functional
[12] = system: ACHN; assay: Tested for the cytotoxicity against the Renal cancer cell line ACHN, growth inhibition by 50% is reported; assay type: functional
[13] = system: CCRF-CEM; assay: Tested for the cytotoxicity against the Leukemia cell line CCRF-CEM, growth inhibition by 50% is reported; assay type: functional
[14] = system: NCI-H226; assay: Tested for the cytotoxicity against the Non-small cell lung cancer cell line NCI-H226, growth inhibition by 50% is reported; assay type: functional
[15] = system: OVCAR-4; assay: Tested for the cytotoxicity against the Ovarian cancer cell line OVCAR-4, growth inhibition by 50% is reported; assay type: functional
[16] = system: A549; assay: Tested for the cytotoxicity against the Non-small cell lung cancer cell line A-549, growth inhibition by 50% is reported; assay type: functional
[17] = system: CAKI-1; assay: Tested for the cytotoxicity against the Renal cancer cell line CAKI-1, growth inhibition by 50% is reported; assay type: functional
[18] = system: LOX IMVI; assay: Tested for the cytotoxicity against the Melanoma cell line LOXIMVI, growth inhibition by 50% is reported; assay type: functional
[19] = system: MDA-MB-435; assay: Tested for the cytotoxicity against the Breast cancer cell line MDAMB435, growth inhibition by 50% is reported; assay type: functional
[20] = system: U-251; assay: Tested for the cytotoxicity against the CNS cancer cell line U251,growth inhibition by 50% is reported; assay type: functional
[21] = system: K562; assay: Tested for the cytotoxicity against the Leukemia cell line K-562, growth inhibition by 50% is reported; assay type: functional
[22] = system: BT-549; assay: Tested for the cytotoxicity against the Breast cancer cell line BT-549, growth inhibition by 50% is reported; assay type: functional
[23] = system: MOLT-4; assay: Tested for the cytotoxicity against the Leukemia cell line MOLT-4, growth inhibition by 50% is reported; assay type: functional
[24] = system: KM12; assay: Tested for the cytotoxicity against the colon cancer cell line KM-12, growth inhibition by 50% is reported; assay type: functional
[25] = system: SF-268; assay: Tested for the cytotoxicity against the CNS cancer cell line SF-268, growth inhibition by 50% is reported; assay type: functional
[26] = system: HCT-15; assay: Tested for the cytotoxicity against the colon cancer cell line HCT15, growth inhibition by 50% is reported; assay type: functional
[27] = system: NCI-H522; assay: Tested for the cytotoxicity against the Non-small cell lung cancer cell line NCI-H522 growth inhibition by 50% is reported; assay type: functional

`COc1cc(/C=C/c2ccc(S(N)(=O)=O)cc2)cc(OC)c1` gave a GI50 [1] of 18.8 µM, a GI50 [2] of 23.1 µM and a GI50 [3] of 14.3 µM. It also gave a GI50 [4] of 19.7 µM, a GI50 [5] of 22.5 µM and a GI50 [6] of 15 µM. It also gave a GI50 [7] of 16.2 µM, a GI50 [8] of 37.9 µM and a GI50 [9] of 18.6 µM. The GI50 [10] was 15.4 µM, the GI50 [11] was 20.1 µM and the GI50 [12] was 23.5 µM. It also gave a GI50 [13] of 19.9 µM, a GI50 [14] of 12.3 µM and a GI50 [15] of 21.2 µM. The GI50 [16] was 20.7 µM, the GI50 [17] was 19 µM and the GI50 [18] was 18.2 µM. For the same compound, the GI50 [19] was 18.7 µM, the GI50 [20] was 17.1 µM and the GI50 [21] was 28.7 µM. It also gave a GI50 [22] of 10.7 µM, a GI50 [23] of 18.6 µM and a GI50 [24] of 20.8 µM. The GI50 [25] was 28.3 µM and the GI50 [26] was 17.4 µM.

Work on `NS(=O)(=O)c1ccc(/C=C/c2ccc(O)cc2)cc1` yielded a GI50 [1] of 7.4 µM, a GI50 [2] of 20.3 µM and a GI50 [27] of 13.8 µM. For the same compound, the GI50 [3] was 7.09 µM, the GI50 [4] was 4.68 µM and the GI50 [5] was 16.9 µM. The GI50 [6] was 31.5 µM, the GI50 [7] was 17.8 µM and the GI50 [8] was 4.81 µM. It also gave a GI50 [9] of 4.35 µM, a GI50 [10] of 3.4 µM and a GI50 [11] of 28.9 µM. It also gave a GI50 [12] of 2.28 µM, a GI50 [13] of 4.5 µM and a GI50 [14] of 11.1 µM. The GI50 [15] was 36.9 µM, the GI50 [16] was 13.9 µM and the GI50 [17] was 5.59 µM. The GI50 [18] was 19.1 µM, the GI50 [19] was 20.3 µM and the GI50 [20] was 15 µM. It also gave a GI50 [21] of 24.9 µM, a GI50 [23] of 22.6 µM and a GI50 [24] of 11.1 µM. It also gave a GI50 [25] of 31.5 µM and a GI50 [26] of 24.6 µM.

With `COc1cccc(/C=C/c2ccc(S(N)(=O)=O)cc2)c1` the GI50 [1] was 16.8 µM, the GI50 [2] was 2.5 µM and the GI50 [3] was 3.81 µM. It also gave a GI50 [4] of 5.21 µM, a GI50 [5] of 21 µM and a GI50 [6] of 3.29 µM. It also gave a GI50 [7] of 0.554 µM, a GI50 [8] of 31.6 µM and a GI50 [9] of 10.4 µM. The GI50 [10] was 14 µM, the GI50 [11] was 25.5 µM and the GI50 [12] was 7.12 µM. It also gave a GI50 [13] of 13.6 µM, a GI50 [14] of 2.91 µM and a GI50 [15] of 25 µM. For the same compound, the GI50 [16] was 11 µM, the GI50 [17] was 14.7 µM and the GI50 [18] was 30.7 µM. It also gave a GI50 [19] of 17.4 µM, a GI50 [20] of 5.54 µM and a GI50 [21] of 20.6 µM. The GI50 [22] was 6.38 µM, the GI50 [23] was 26.8 µM and the GI50 [24] was 12.2 µM. The GI50 [25] was 17.1 µM and the GI50 [26] was 3.6 µM.

For `NS(=O)(=O)c1ccc(/C=C/c2cccc(O)c2)cc1`, the GI50 [1] was 36.7 µM, the GI50 [2] was 30.2 µM and the GI50 [27] was 12.2 µM. It also gave a GI50 [3] of 18.9 µM, a GI50 [4] of 17.8 µM and a GI50 [5] of 46.1 µM. It also gave a GI50 [6] of 17.4 µM, a GI50 [7] of 43.3 µM and a GI50 [8] of 25.2 µM. For the same compound, the GI50 [9] was 41.4 µM, the GI50 [10] was 18.6 µM and the GI50 [11] was 61 µM. The GI50 [12] was 25.8 µM, the GI50 [13] was 16.1 µM and the GI50 [14] was 25.8 µM. It also gave a GI50 [15] of 27.8 µM, a GI50 [16] of 19.8 µM and a GI50 [17] of 50.2 µM. It also gave a GI50 [18] of 43 µM, a GI50 [19] of 25.8 µM and a GI50 [20] of 21.1 µM. It also gave a GI50 [21] of 43.4 µM, a GI50 [23] of 20 µM and a GI50 [24] of 35.4 µM. It also gave a GI50 [25] of 65.6 µM and a GI50 [26] of 22.8 µM.

`NS(=O)(=O)c1ccc(/C=C/c2ccc(F)cc2)cc1` showed a GI50 [1] of 29.1 µM, a GI50 [2] of 20.9 µM and a GI50 [27] of 4.81 µM. For the same compound, the GI50 [3] was 42.3 µM, the GI50 [4] was 10.5 µM and the GI50 [5] was 45.1 µM. It also gave a GI50 [6] of 33.2 µM, a GI50 [7] of 29.4 µM and a GI50 [8] of 15.2 µM. The GI50 [9] was 37.3 µM, the GI50 [11] was 23.7 µM and the GI50 [12] was 2.97 µM. The GI50 [13] was 62 µM, the GI50 [14] was 7.97 µM and the GI50 [15] was 34.4 µM. The GI50 [16] was 8.93 µM, the GI50 [17] was 36.3 µM and the GI50 [18] was 26.7 µM. The GI50 [19] was 27 µM, the GI50 [20] was 7.93 µM and the GI50 [21] was 14.9 µM. It also gave a GI50 [22] of 0.205 µM, a GI50 [23] of 12.9 µM and a GI50 [24] of 16.3 µM. It also gave a GI50 [25] of 20.5 µM and a GI50 [26] of 9.98 µM.

Compound `CN(C)c1ccc(/C=C/c2ccc(S(N)(=O)=O)cc2)cc1` has a GI50 [1] of 11.7 µM, a GI50 [2] of 13.4 µM and a GI50 [27] of 6.88 µM. The GI50 [3] was 11.6 µM, the GI50 [4] was 8.58 µM and the GI50 [5] was 14.2 µM. The GI50 [6] was 16.6 µM, the GI50 [7] was 30.8 µM and the GI50 [8] was 4.95 µM. It also gave a GI50 [9] of over 100 µM, a GI50 [11] of 3.03 µM and a GI50 [12] of 13.6 µM. It also gave a GI50 [13] of 46 µM, a GI50 [14] of 12.1 µM and a GI50 [15] of 3.34 µM. The GI50 [16] was 10.1 µM, the GI50 [17] was 50.3 µM and the GI50 [18] was 18.7 µM. It also gave a GI50 [19] of 7.63 µM, a GI50 [20] of 11.2 µM and a GI50 [21] of over 100 µM. It also gave a GI50 [22] of 2.14 µM, a GI50 [23] of over 100 µM and a GI50 [24] of 8.28 µM. For the same compound, the GI50 [25] was 7.16 µM and the GI50 [26] was 17.1 µM.

Compound `NS(=O)(=O)c1ccc(/C=C/c2ccc(O)c(O)c2)cc1` has a GI50 [1] of 14.2 µM, a GI50 [2] of 4.49 µM and a GI50 [27] of 2.25 µM. For the same compound, the GI50 [3] was 9.16 µM, the GI50 [4] was 12.7 µM and the GI50 [5] was 25.9 µM. It also gave a GI50 [6] of 15.8 µM, a GI50 [7] of 35.4 µM and a GI50 [8] of 16.7 µM. The GI50 [9] was 16.3 µM, the GI50 [10] was 23.3 µM and the GI50 [11] was 25.6 µM. For the same compound, the GI50 [12] was 20.4 µM, the GI50 [13] was 4.79 µM and the GI50 [14] was 14 µM. The GI50 [15] was 11.6 µM, the GI50 [16] was 22.3 µM and the GI50 [17] was 29.1 µM. For the same compound, the GI50 [18] was 29.9 µM, the GI50 [19] was 16.8 µM and the GI50 [20] was 16.3 µM. It also gave a GI50 [21] of 35.3 µM, a GI50 [22] of 4.13 µM and a GI50 [23] of 12.8 µM. For the same compound, the GI50 [24] was 18.2 µM, the GI50 [25] was 18.2 µM and the GI50 [26] was 13.9 µM.
